Measured values: US20170202838A1, “IMMUNOMODULATOR” (TAIHO PHARMACEUTICAL CO., LTD., priority 2015, published 2017)

Tests used:
[1] = test system: human peripheral blood mononuclear cells; assay: Induction of cytokine production in human peripheral blood mononuclear cells, Bio-Plex Pro cytokine assay (Example 7); assay type: cell-based; conditions: 2 days culture, no stimulant (FIG. 9)
Experimental: Human peripheral blood mononuclear cells were introduced into a human complete medium (i.e., RPMI-1640 supplemented with 10% heat-inactivated FBS, 100 U/ml penicillin, and 100 μg/ml streptomycin) to prepare a cell suspension (1×10^5 cells/ml). Compound (I), the EGFR tyrosine kinase inhibitor (i.e., AZD9291 or Erlotinib), or a cytokine-inducing positive control (i.e., Imiquimod) was added to the cell suspension. A control group to which the EGFR tyrosine kinase inhibitor and others were not added was also prepared (i.e., the non-treatment group). The culture solution was cultured in an incubator at 37° C. in the presence of 5% CO2 for 2 days. The culture supernatant was recovered, and various types of cytokines were inspected with the use of the Bio-Plex Pro human cytokine assay kit.

K1735M2 [2] = assay: Tumor volume of subcutaneous mouse melanoma cell line, potentiation of anti-PD-1 or anti-PD-L1 antibody, in vivo model (Example 10); conditions: Compound (I) 50 mg/kg, antibody 100 μg/mouse, alone or in combination (FIG. 12)
Experimental: A cell suspension of the mouse melanoma cell line K1735M2 was prepared with the use of PBS(-) and 50% Matrigel, and the cell suspension was injected subcutaneously into mice at 1×10^6 cells/mouse. The mice were divided into groups based on their body weights 1 day after implantation, Compound (I) (50 mg/kg) or the anti-PD-1 antibody or anti-PD-L1 antibody (100 μg/mouse) was administered thereto alone or either the anti-PD-1 antibody or the anti-PD-L1 antibody was administered in combination with Compound (I), and the tumor volume was measured with the elapse of time. The tumor volume was determined on the basis of the longer diameter and the shorter diameter of the tumor measured percutaneously in accordance with Equation A shown above.

mouse spleen cells = assay: Induction of IL-2 production of mouse spleen cells stimulated with anti-CD3 antibody and anti-CD28 antibody (Example 1); assay type: cell-based
Experimental: The mouse spleen was extracted, grinded with glass slides with frosted areas, and then subjected to hemolysis, so as to obtain spleen cells. The resulting spleen cells were introduced into a complete medium (i.e., RPMI-1640 supplemented with 10% heat-inactivated FBS, 100 U/ml penicillin, 100 μg/ml streptomycin, and 55 μM 2-mercaptoethanol) to a cell density of 2×10^6 cells/ml, the anti-CD3 antibody and the anti-CD28 antibody were added thereto to the final concentrations of 3 μg/ml and 0.5 μg/ml, respectively, and Compound (I) was further added thereto to each final concentration. The culture solution was seeded in a 96-well plate at 200 μl/well and then cultured in an incubator at 37° C. in the presence of 5% CO2 for 2 days. The culture supernatant was recovered, and the concentration of IL-2 contained therein was measured via ELISA using anti-mIL-2 antibody.
Also, culture was conducted in the same manner with the addition of the anti-CD3 antibody at a variable final concentration, the anti-CD28 antibody at the final concentration of 0.5 μg/ml, and Compound (I) at the final concentration of 0.0 μM or 0.1 μM, and the IL-2 concentration in the culture supernatant was measured.

MC38 = assay: Tumor volume of subcutaneous mouse colon cancer cell line, alone or combined with anti-PD-1 antibody, in vivo model (Example 11)
Experimental: A cell suspension of the mouse colon cancer cell line MC38 was prepared with the use of PBS(-) and 50% Matrigel, and the cell suspension was injected subcutaneously into mice at 1×10^6 cells/mouse. The mice were divided into groups when the average subcutaneous tumor volume reached approximately 50 mm^3, Compound (I) (50 mg/kg) or the anti-PD-1 antibody (50 μg/mouse) was administered thereto alone or Compound (I) (50 mg/kg) was administered in combination with the anti-PD-1 antibody (50 μg/mouse), and the tumor volume was measured with the elapse of time. The tumor volume was determined on the basis of the longer diameter and the shorter diameter of the tumor measured percutaneously in accordance with Equation A shown below.
Tumor volume (mm^3)=longer diameter (mm)×shorter diameter (mm)^2/2 (Equation A)

K1735M2 [3] = assay: In vitro growth of mouse melanoma cell line K1735M2, CellTiter-Glo2.0 (Reference Example 1); assay type: cell-based; conditions: K1735M2, 3 days culture
Experimental: (§1) The mouse melanoma cell lines B16F10 and K1735M2 and the mouse colon cancer cell line MC38 were seeded in a 96-well plate at 3×10^3 cells/well. Compound (I) or the EGFR tyrosine kinase inhibitor (i.e., Erlotinib, Afatinib, AZD9291, or Co1686 (Rociletinib)) that had been diluted to the given concentration was added 24 hours later. Thereafter, culture was conducted for 3 days, and the number of cells was determined using CellTiter-Glo2.0 (Promega, G9243).

[4] = test system: C57BL/6N mouse spleen cells mixed with irradiated BALB/c mouse spleen cells; assay: T cell modulation through mixed lymphocyte reaction, 3H-Thd uptake (Example 3); assay type: cell-based; conditions: allogeneic mixed spleen cells, 3 days culture (FIG. 4)
Source text: A mixed lymphocyte reaction (MLR) is a representative experimentation technique for T cell modulation described in, for example, J. Exp. Med. 127 (5): 879-90, 1968. The influence of Compound (I) imposed on T cell modulation through this reaction was examined.
Spleens were extracted from C57BL/6N mice and BALB/c mice, grinded with glass slides with frosted areas, and then subjected to hemolysis, so as to obtain spleen cells. The C57BL/6N mouse spleen cells and the BALB/c mouse spleen cells were introduced into a complete medium (i.e., RPMI-1640 supplemented with 10% heat-inactivated FBS, 100 U/ml penicillin, 100 μg/ml streptomycin, and 55 μM 2-mercaptoethanol). The BALB/c mouse spleen cells were irradiated with 30 Gy X-ray to destroy the growth activity. The spleen cells of these allogeneic mice were each added to the final concentration of 1×10^5 cells/well and mixed (Alo), and Compound (I) or the EGFR tyrosine kinase inhibitor (i.e., AZD09291 or Erlotinib) adjusted to relevant concentrations was added thereto. As a control sample, a mixture of syngeneic C57BL/6N mouse spleen cells (Syn) was also prepared. The culture solution was seeded in a 96-well plate at 200 μl/well and then cultured in an incubator at 37° C. in the presence of 5% CO2 for 3 days. […] The amount of 3H-Thd uptake was measured using a liquid scintillation counter.

B16F10 = assay: In vitro growth of mouse melanoma cell line B16F10, CellTiter-Glo2.0 (Reference Example 1); assay type: cell-based; conditions: B16F10, 3 days culture
Experimental: as §1

`C=CC(=O)N[C@H]1CCc2c(-c3cnc4ccccc4c3)c3c(N)ncnc3n2C1` [Compound (I), (S)—N-(4-amino-5-(quinolin-3-yl)-6,7,8,9-tetrahydropyrimido[5,4-b]indolizin-8-yl)acrylamide] was tested, and the “cytokine concentrations relative to the non-treatment group” value [1] was “induced the production of various types of cytokines”, the “extent of tumor growth inhibition (tumor volume)” value (K1735M2 [2]) was “not sufficient” and the “concentration of IL-2 produced by mouse spleen cells in the culture supernatant” value (mouse spleen cells; anti-CD3 antibody 3 μg/ml and anti-CD28 antibody 0.5 μg/ml constant, Compound (I) variable, 2 days, ELISA (FIG. 1)) was “increased as the amount of Compound (I) added increased”. For the same compound, the “concentration of IL-2 produced by mouse spleen cells in the culture supernatant” value (mouse spleen cells; anti-CD3 antibody variable, anti-CD28 antibody 0.5 μg/ml, Compound (I) 0.1 μM vs 0.0 μM (FIG. 2)) was “IL-2 production was induced upon stimulation with the anti-CD3 antibody”, the “extent of tumor growth inhibition (tumor volume)” value (MC38; Compound (I) 50 mg/kg alone, compared with control group (FIG. 13)) was “greater” and the “potentiation of the activity of the anti-PD-1 antibody (tumor volume)” value (MC38; Compound (I) 50 mg/kg in combination with anti-PD-1 antibody 50 μg/mouse (FIG. 13)) was “potentiate the immunomodulation activity of the anti-PD-1 antibody”. The “suppression of cell growth (number of cells)” value (K1735M2 [3]) was “did not suppress the growth of any cells”, the “amount of 3H-Thd uptake (amount of T cells grown through the mixed lymphocyte reaction)” value [4] was “induced the growth of T cells” and the “suppression of cell growth (number of cells)” value (B16F10) was “did not suppress the growth of any cells”.
